Measurements published in ChEMBL document CHEMBL1135750, “Phenoxyphenyl sulfone N-formylhydroxylamines (retrohydroxamates) as potent, selective, orally bioavailable matrix metalloproteinase inhibitors” (J Med Chem, 2002).
pIC50: −log10 of the molar value.

Columns and labels:
Stromelysin-1 = Stromelysin-1 (Homo sapiens, UniProt P08254); experiment: Inhibition of Matrix metalloprotease-3 (MMP-3) in fluorimetric assay
Collagenase 3 = Collagenase 3 (Homo sapiens, UniProt P45452)
Description: Inhibition of Matrix metalloprotease-13 (MMP-13) in fluorimetric assay

[1] = biological target: 72 kDa type IV collagenase (Homo sapiens, UniProt P08253); experiment: In vitro selective inhibition against matrix metalloprotease-2 (MMP-2) using fluorimetric assay
THP-1 = experiment: Selective inhibition of the cellular TNF alpha release from LPS-stimulated THP-1 cells; format: functional, cell-based; settings: Homo sapiens
[2] = biological target: Matrix metalloproteinase-9 (Homo sapiens, UniProt P14780); experiment: In vitro selective inhibition against Matrix metalloprotease-9 (MMP-9) using fluorimetric assay
Matrilysin = biological target: T1, Matrilysin (Homo sapiens, UniProt P09237); experiment: Inhibition of Matrix metalloprotease-7 (MMP-7) in fluorimetric assay
T1 sequence (P09237 whole entry): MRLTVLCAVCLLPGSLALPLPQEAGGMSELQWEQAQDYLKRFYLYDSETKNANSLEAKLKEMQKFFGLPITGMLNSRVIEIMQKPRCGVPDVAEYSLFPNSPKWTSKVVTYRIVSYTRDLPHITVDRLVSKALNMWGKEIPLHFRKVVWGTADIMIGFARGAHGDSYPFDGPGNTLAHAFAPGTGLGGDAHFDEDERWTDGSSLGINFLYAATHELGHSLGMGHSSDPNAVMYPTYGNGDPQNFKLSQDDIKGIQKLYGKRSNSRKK

Neutrophil collagenase = Neutrophil collagenase (Homo sapiens, UniProt P22894); experiment: Inhibition of Matrix metalloprotease-8 (MMP-8) in fluorimetric assay
Interstitial collagenase = biological target: T2, Interstitial collagenase (Homo sapiens, UniProt P03956); experiment: In vitro selective inhibition against matrix metalloprotease-1 (MMP-1) using a fluorimetric assay
T2 sequence (P03956 whole entry): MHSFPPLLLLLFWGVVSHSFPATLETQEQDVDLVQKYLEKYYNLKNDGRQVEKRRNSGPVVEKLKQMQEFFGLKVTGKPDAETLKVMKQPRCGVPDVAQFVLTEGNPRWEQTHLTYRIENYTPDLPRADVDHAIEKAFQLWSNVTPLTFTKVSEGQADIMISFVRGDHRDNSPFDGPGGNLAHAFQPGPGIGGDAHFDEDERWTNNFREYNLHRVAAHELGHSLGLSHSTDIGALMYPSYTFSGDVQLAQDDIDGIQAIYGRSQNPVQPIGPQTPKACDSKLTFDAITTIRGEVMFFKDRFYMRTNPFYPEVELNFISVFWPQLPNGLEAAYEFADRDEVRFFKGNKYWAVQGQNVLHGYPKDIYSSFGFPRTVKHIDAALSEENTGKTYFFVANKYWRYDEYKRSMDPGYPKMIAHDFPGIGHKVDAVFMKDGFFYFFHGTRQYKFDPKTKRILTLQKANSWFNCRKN

72 kDa type IV collagenase, sequence (P08253 whole entry): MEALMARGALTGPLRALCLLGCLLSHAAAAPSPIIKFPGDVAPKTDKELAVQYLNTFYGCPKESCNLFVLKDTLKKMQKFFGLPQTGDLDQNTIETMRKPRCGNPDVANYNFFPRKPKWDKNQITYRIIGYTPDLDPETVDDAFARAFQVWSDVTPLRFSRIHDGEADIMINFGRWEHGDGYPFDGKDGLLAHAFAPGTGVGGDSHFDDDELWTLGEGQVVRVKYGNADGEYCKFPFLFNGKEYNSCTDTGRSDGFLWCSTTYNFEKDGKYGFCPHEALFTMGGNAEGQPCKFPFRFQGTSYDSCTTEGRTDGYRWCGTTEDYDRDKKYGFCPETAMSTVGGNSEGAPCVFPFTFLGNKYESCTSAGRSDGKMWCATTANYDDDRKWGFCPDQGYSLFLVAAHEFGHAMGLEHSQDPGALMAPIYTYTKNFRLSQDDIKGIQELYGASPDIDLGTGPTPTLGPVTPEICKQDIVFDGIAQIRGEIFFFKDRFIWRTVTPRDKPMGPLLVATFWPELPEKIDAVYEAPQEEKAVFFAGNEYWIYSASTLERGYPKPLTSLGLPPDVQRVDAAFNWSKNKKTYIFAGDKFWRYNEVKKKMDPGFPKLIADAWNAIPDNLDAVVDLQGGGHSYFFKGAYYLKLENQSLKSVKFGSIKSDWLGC
Neutrophil collagenase, sequence (P22894 whole entry): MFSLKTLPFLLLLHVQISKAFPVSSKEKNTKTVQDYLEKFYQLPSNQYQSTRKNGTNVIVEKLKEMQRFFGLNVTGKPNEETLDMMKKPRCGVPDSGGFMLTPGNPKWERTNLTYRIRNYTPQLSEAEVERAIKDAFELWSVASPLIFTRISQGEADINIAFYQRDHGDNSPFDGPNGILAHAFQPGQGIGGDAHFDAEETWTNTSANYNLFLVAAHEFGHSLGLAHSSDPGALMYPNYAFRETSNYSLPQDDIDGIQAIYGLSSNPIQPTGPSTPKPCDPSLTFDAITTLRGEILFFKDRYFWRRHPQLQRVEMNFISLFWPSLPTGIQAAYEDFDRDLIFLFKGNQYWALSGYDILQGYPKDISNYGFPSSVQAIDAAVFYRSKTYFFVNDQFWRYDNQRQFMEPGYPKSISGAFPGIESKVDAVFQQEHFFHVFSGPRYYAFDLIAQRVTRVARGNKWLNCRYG
Matrix metalloproteinase-9, sequence (P14780 whole entry): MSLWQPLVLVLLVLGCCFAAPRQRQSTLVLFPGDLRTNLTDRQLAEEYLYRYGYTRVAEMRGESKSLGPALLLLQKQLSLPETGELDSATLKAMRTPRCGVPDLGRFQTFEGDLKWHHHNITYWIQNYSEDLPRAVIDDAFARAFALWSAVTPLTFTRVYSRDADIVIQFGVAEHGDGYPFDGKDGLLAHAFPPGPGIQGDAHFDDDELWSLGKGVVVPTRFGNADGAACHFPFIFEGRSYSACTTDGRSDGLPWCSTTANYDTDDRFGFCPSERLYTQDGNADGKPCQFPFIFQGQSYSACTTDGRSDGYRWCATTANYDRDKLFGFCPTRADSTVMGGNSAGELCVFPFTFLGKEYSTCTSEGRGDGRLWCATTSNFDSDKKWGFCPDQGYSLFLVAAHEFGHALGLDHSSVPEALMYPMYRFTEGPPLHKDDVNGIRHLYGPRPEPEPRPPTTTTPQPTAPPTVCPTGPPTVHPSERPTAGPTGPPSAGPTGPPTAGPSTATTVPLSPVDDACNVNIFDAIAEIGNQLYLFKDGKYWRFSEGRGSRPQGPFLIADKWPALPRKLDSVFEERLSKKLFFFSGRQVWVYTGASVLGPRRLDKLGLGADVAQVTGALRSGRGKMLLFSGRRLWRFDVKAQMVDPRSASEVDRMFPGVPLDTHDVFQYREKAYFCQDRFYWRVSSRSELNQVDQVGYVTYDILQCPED
Stromelysin-1, sequence (P08254 whole entry): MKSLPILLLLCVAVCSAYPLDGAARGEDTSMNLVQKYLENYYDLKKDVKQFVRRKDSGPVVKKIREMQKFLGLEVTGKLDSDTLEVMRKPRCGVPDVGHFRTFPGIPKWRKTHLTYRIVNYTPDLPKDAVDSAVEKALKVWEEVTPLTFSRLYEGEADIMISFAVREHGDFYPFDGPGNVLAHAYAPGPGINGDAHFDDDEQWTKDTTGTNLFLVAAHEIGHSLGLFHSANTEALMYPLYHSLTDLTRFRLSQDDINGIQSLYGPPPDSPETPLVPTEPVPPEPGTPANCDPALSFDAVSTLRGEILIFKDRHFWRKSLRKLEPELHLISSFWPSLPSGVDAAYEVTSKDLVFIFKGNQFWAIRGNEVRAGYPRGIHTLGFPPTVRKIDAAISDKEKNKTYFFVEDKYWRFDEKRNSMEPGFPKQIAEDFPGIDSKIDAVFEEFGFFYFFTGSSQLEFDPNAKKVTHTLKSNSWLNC

CC1(C)OC[C@H]([C@@H](CS(=O)(=O)c2ccc(Oc3ccc(OC(F)(F)F)cc3)cc2)N(O)C=O)O1 (stereo in doubt)
pIC50 (Stromelysin-1): 7.92
pIC50 (Collagenase 3): 8.48
pIC50 [1]: 9.11
pIC50 (THP-1): < 4.30
pIC50 [2]: 9.30
pIC50 (Matrilysin): 4.96
pIC50 (Neutrophil collagenase): 8.30
pIC50 (Interstitial collagenase): 5.05
